Converted amounts (≈) assume the structure as drawn.
Tests used:
[1] = test system: M. avium 11; assay: Single point growth inhibition screening assay; type: cell-based, Mycobacterium avium; conditions: M. avium 11, 20 μM, 4 days
[2] = test system: M. abscessus Bamboo; assay: Single point growth inhibition screening assay; type: cell-based, Mycobacterium abscessus; conditions: 20 μM, 3 days
[3] = test system: M. avium 11; assay: Dose-response growth inhibition (broth microdilution); type: cell-based, Mycobacterium avium; conditions: Mycobacterium avium, 96 h, M. avium 11, 4 days
[4] = test system: M. avium; conditions: ref Heifets et al., 1992; cited from earlier work
[5] = test system: M. abscessus Bamboo; assay: Dose-response growth inhibition (broth microdilution); type: cell-based, Mycobacterium abscessus; conditions: Mycobacteroides abscessus, 72 h, M. abscessus Bamboo, 3 days
[6] = test system: M. avium 11; assay: Bactericidal assay (CFU, fold kill); type: cell-based, Mycobacterium avium; conditions: 10^7 CFU/mL exposed to MIC90 for 4 days, CFU vs starting inoculum
[7] = test system: M. abscessus; conditions: ref Aziz et al., 2017; cited from earlier work
[8] = test system: M. abscessus Bamboo; assay: Bactericidal assay (CFU, fold kill); type: cell-based, Mycobacterium abscessus; conditions: 10^7 CFU/mL exposed to MIC90 for 3 days, CFU vs starting inoculum

SMILES	Activity in primary screen (hit = equal or more than 80% growth inhibition) [1]	Activity in primary screen (hit = equal or more than 80% growth inhibition) [2]	MIC50 ([3]; read-out: MIC50)	MIC90 ([3]; read-out: MIC90)	Concentration required to reduce CFU 10-fold, relative to MIC90 [4]	MIC50 ([5]; read-out: MIC50)	MIC90 ([5]; read-out: MIC90)	Fold kill at MIC90 [6]	Concentration required to reduce CFU 10-fold, relative to MIC90 [7]	Fold kill at MIC90 [8]
COc1nc2ccc(Br)cc2cc1[C@@H](c1ccccc1)[C@@](O)(CCN(C)C)c1cccc2ccccc12 [bedaquiline]	showed activity	showed activity	–	–	–	–	–	–	–	–
CC[C@H]1OC(=O)[C@H](C)[C@@H](O[C@H]2C[C@@](C)(OC)[C@@H](O)[C@H](C)O2)[C@H](C)[C@@H](O[C@@H]2O[C@H](C)C[C@H](N(C)C)[C@H]2O)[C@](C)(OC)C[C@@H](C)C(=O)[C@H](C)[C@@H](O)[C@]1(C)O [clarithromycin, reference compound]	–	–	< 0.2 µM	0.6 µM (≈ 0.449 µg/mL)	up to 64 times	< 0.2 µM	0.5 µM (≈ 0.374 µg/mL)	NK (NK, “no kill,” i.e., CFU reduction < 10-fold at MIC90)	up to 100 times	NK (NK, “no kill,” i.e., CFU reduction < 10-fold at MIC90)
C[C@H]1COc2c(N3CCN(C)CC3)c(F)cc3c(=O)c(C(=O)O)cn1c23 [levofloxacin]	showed activity	showed activity	–	–	–	–	–	–	–	–

Reference: article PMC5559473, “Screening of TB Actives for Activity against Nontuberculous Mycobacteria Delivers High Hit Rates” (Frontiers in Microbiology, 2017)
